Measured values reported in paper PMC6387369, “Carbonic Anhydrase Inhibitors of Different Structures Dilate Pre-Contracted Porcine Retinal Arteries” (International Journal of Molecular Sciences, 2019).
Where two headings read alike, the source gives them in different places.

What was measured:
[1] = tested on: porcine retinal arteries; assay: small vessel myography of wall tension in isolated retinal artery segments pre-contracted with U-46619; type: cell-based; settings: for vasodilation in a single representative experiment, percent of maximum contraction / mean dilation as percentage of the maximum contraction induced by U-46619: single dose of 10^−3 M; for vasodilation in a single representative experiment, percent of maximum contraction: pre-contracted with 10^−6 M U-46619; for mean dilation as percentage of the maximum contraction induced by U-46619: mean ± SEM; for EC50: Sus scrofa, best fit to concentration-response curves, arteries pre-contracted with 10^−6 M U-46619, read-out: mean EC50 of vasodilation; for wall tension reached after dilation: final level (slower phase for compound 4); for peak wall tension after U-46619: 10^−6 M
[2] = molecular target: T1, hCA I (Homo sapiens, UniProt P00915); assay: stopped flow CO2 hydrase assay, hCA I; type: biochemical; settings: mean from 3 assays, errors ± 5%–10%
T1 construct: made in house

[3] = molecular target: T2, hCA II (Homo sapiens, UniProt P00918); assay: stopped flow CO2 hydrase assay, hCA II; type: biochemical; settings: mean from 3 assays, errors ± 5%–10%
T2 construct: made in house

[4] = molecular target: T3, hCA IX (Homo sapiens, UniProt Q16790); assay: stopped flow CO2 hydrase assay, hCA IX; type: biochemical; settings: mean from 3 assays, errors ± 5%–10%
T3 construct: made in house

[5] = molecular target: T4, hCA XII (Homo sapiens, UniProt O43570); assay: stopped flow CO2 hydrase assay, hCA XII; type: biochemical
T4 construct: made in house

[6] = molecular target: T5, hCA IV (Homo sapiens, UniProt P22748); assay: stopped flow CO2 hydrase assay, hCA IV; type: biochemical; settings: mean from 3 assays, errors ± 5%–10%
T5 construct: made in house

[7] = molecular target: T1, hCA I; settings: stopped flow; cited from earlier work
[8] = molecular target: T2, hCA II; set-up: method as in PMID 16996620; settings: stopped flow; cited from earlier work

T1 sequence (P00915 whole entry): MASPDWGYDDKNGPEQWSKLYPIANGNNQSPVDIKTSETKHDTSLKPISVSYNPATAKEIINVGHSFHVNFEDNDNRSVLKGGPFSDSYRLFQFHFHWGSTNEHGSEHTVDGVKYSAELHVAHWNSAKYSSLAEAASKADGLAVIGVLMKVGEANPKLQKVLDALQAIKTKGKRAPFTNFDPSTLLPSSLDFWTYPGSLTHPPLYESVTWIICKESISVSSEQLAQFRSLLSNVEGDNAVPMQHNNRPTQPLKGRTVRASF
T5 sequence (P22748 19-312): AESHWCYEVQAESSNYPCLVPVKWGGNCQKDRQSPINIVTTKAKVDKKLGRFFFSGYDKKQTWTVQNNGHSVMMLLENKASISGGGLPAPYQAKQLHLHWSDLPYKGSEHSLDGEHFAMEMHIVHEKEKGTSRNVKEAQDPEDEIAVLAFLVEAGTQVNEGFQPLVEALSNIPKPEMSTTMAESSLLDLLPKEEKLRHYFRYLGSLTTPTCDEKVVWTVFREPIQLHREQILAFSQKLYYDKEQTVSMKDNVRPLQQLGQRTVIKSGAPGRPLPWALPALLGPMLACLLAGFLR
T4 sequence (O43570 25-354): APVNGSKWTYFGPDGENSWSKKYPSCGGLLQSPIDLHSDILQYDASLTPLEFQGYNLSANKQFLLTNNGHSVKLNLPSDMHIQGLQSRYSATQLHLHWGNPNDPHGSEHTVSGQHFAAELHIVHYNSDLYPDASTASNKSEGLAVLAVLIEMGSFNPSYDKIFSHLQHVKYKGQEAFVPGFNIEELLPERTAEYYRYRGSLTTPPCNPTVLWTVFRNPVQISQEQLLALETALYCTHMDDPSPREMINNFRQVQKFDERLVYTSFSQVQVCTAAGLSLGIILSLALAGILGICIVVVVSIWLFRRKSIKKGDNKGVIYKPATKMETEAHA

SMILES: CCN[C@H]1C[C@H](C)S(=O)(=O)c2sc(S(N)(=O)=O)cc21 [Compound 2, Dorzolamide, reference compound]
- vasodilation in a single representative experiment, percent of maximum contraction ([1]; one vessel): 33%
- mean dilation as percentage of the maximum contraction induced by U-46619 [1]: 69.7% ± 5.7%

SMILES: C#CCNc1ccc2c(C)cc(=O)oc2c1 [Compound 6]
- Ki [2]: > 10 µM
- Ki [3]: > 10000 nM
- Ki [4]: 474 nM
- Ki ([5]; mean from 3 assays, errors ± 5%–10%): 44.5 nM
- EC50 [1]: 101 µM
- vasodilation in a single representative experiment, percent of maximum contraction ([1]; one vessel): 96.8%
- mean dilation as percentage of the maximum contraction induced by U-46619 [1]: 99.5% ± 1.2%

SMILES: C#CCOc1ccc2oc(=O)ccc2c1 [Compound 4]
- wall tension after initial very fast phase of dilation ([1]; 10^−3 M, one vessel, peak constriction 1.63 mN/mm (Figure 3B)): about 0.66 mN/mm
- wall tension reached after dilation ([1]; 10^−3 M, one vessel): about 0.36 mN/mm
- EC50 [1]: 134 µM
- vasodilation in a single representative experiment, percent of maximum contraction ([1]; one vessel): 101%
- mean dilation as percentage of the maximum contraction induced by U-46619 [1]: 98.8% ± 6.1%

SMILES: NS(=O)(=O)c1nnc(NS(=O)(=O)c2ccccc2)s1 [Compound 1, Benzolamide, reference compound]
- Ki [6]: 12 nM
- final dilation when added after DZA dilation had reached a steady level ([1]; 10^−3 M BZA added on top of 10^−3 M DZA, one vessel (Figure 2B)): 100%
- EC50 [1]: 84.3 µM
- vasodilation in a single representative experiment, percent of maximum contraction ([1]; one vessel): almost complete inhibition
- mean dilation as percentage of the maximum contraction induced by U-46619 [1]: 78.4% ± 8.5%

SMILES: CCCCC[C@H](O)/C=C/[C@@H]1[C@@H](C/C=C\CCCC(=O)O)[C@H]2CO[C@@H]1C2 [Compound U-46619, 9,11-dideoxy-9 α,11α methanoepoxy prostaglandin F2α, reference compound]
- peak wall tension after U-46619 ([1]; Figure 2A, baseline 0.4 mN/mm): about 1.75 mN/mm
- peak wall tension after U-46619 ([1]; Figure 3A, baseline 0.6 mN/mm): 2.4 mN/mm
- peak wall tension after U-46619 ([1]; Figure 3B, baseline about 0.38 mN/mm): 1.63 mN/mm
- peak wall tension after U-46619 ([1]; Figure 4A, baseline 1.54 mN/mm): 3.38 mN/mm
- peak wall tension after U-46619 ([1]; Figure 4B, baseline 0.95 mN/mm): 2.21 mN/mm

SMILES: C#CCOc1ccc2ccc(=O)oc2c1 [Compound 5]
- Ki [6]: 76.4 nM
- times less effective than 4 against hCA XII ([5]; ratio of KI values versus compound 4): 12.9 times
- wall tension reached after dilation ([1]; 10^−3 M, one vessel): 0.77 mN/mm
- EC50 [1]: 4.12 µM
- vasodilation in a single representative experiment, percent of maximum contraction ([1]; one vessel): 140%
- mean dilation as percentage of the maximum contraction induced by U-46619 [1]: 116.5% ± 1.7%
- Ki [7]: > 10 µM
- Ki [8]: > 10 µM

SMILES: C#CCN(CC#C)CCc1ccc(S(N)(=O)=O)cc1 [Compound 3]
- Ki [2]: 4.01 µM
- Ki [3]: 5.8 nM
- Ki [4]: 55.7 nM
- EC50 [1]: 188 µM
- vasodilation in a single representative experiment, percent of maximum contraction ([1]; one vessel): 91%
- mean dilation as percentage of the maximum contraction induced by U-46619 [1]: 102.2% ± 3.7%
